Reference: patent publication US12668803B2, “Glypican-3-specific modified aptamer and use thereof” (APTAMER SCIENCES INC., priority 2019, dated 2026)

What was measured:
[1] = system: Huh-7 cells; test: Cellular internalization analysis (microscopy, lysotracker/DAPI); format: cell-based
Description: 5 aptamer libraries prepared by truncating the 12-10 aptamer at various lengths [12-12 (35-mer), 12-11 (29-mer), 12-13 (24-mer), 12-14 (23-mer), and 12-15 (18-mer)] were subjected to cellular internalization analysis. In detail, a 6-well plate was prepared, and a round cover glass was placed in the 6-well plate. Huh-7 cells were cultured in the 6-well plate according to the method of Example 1-3. 5 μM of the aptamer stock was mixed with 5×SB18 buffer to prepare the aptamer at a concentration of 4 μM, and heated at 95° C. for 5 min, and then cooled at room temperature for 15 min or more. The next day, the medium was removed from the cultured cells, and a serum-free medium was added thereto, and cultured under conditions of 37° C. and 5% CO2 for 1 hr. The serum-free medium was removed, and then the cells were washed with 2 mL of 1×PBS. KRPH buffer was added, and cultured under conditions of 37° C. and 5% CO2 for 1 hr. 4 μM aptamer was diluted to 25 nM, and then cultured under conditions of 37° C. and 5% CO2 for 1 hr or 4 hr. Washing was repeated three times with 2 mL of 1×PBS. Washing was performed in a shaker at room temperature for 10 min while blocking the light. Thereafter, the cells were fixed by treatment with 4% paraformaldehyde at 4° C. for 10 min. Washing was repeated three times with 2 mL of 1×PBS. A permeabilization solution (0.2% Triton X-100 in 1×PBS) was added, followed by incubation at room temperature for 15 min. Washing was repeated three times with 2 mL of 1×PBS. A blocking solution (3% BSA, 1×PBS) was added, followed by incubation under conditions of 37° C. and 5% CO2 for 20 min. Washing was performed once with 2 mL of 1×PBS. Treatment with a blocking solution containing 150 nM lysotracker was performed, followed by incubation under conditions of 37° C. and 5% CO2 for 1 hr. Washing was repeated three times with 2 mL of 1×PBS, and staining with 4′,6-diamidino-2-phenylindole (DAPI) was performed. The cover glass was carefully removed and […]. […]

[2] = system: HepG2; test: Cytotoxicity (CCK-8) of 12-12 G(3); format: cell-based
Description: (§1) In detail, HepG2, Hep3B, and A431 cells (ATCC, Rockville, MD, USA) were each seeded in a 96-well plate at a density of 1×10^4/mL and cultured using a DMEM (Gibco, Grand Island, NY, USA) medium containing 10% FBS (Gibco, Grand Island, NY, USA) and 1% antibiotics (penicillin/streptomycin) under conditions of 5% CO2 and 37° C. The next day, the aptamer stock (100 μM) was mixed with 5×SB18 buffer to prepare the stock at a concentration of 80 μM, and heated at 95° C. for 5 min, and then cooled at room temperature for 15 min or more. The medium was removed from the cultured cells, and 100 μL of a serum-free medium was added thereto, and cultured under conditions of 37° C. and 5% CO2 for 1 hr. The serum-free medium was removed, and then the cells were washed with 100 μL of 1×PBS. 100 μL of KRPH buffer was added, and cultured under conditions of 37° C. and 5% CO2 for 1 hr. The aptamer was diluted with KRPH buffer to 2-fold of the desired concentration, and added to a 96-well plate at 1× concentration, and cultured under conditions of 37° C. and 5% CO2 for 4 hr. After treatment with the aptamer, the KRPH buffer was removed, and then 100 μL of culture medium was added and cultured under conditions of 37° C. and 5% CO2 for 6 days. 6 days later, 10 μL of a CCK-8 kit solution was added to each well, and then cultured under conditions of 37° C. and 5% CO2 for 3 hr. Cell death levels were examined at […] using a microplate reader.

[3] = system: squamous cell carcinoma cell A431; test: Cytotoxicity (CCK-8) of 12-12 G(3); format: cell-based
Description: as §1

[4] = Serum stability analysis (urea PAGE); format: in vitro ADME, human; conditions: 100% human serum, 37° C., FIG. 28
Description: To examine whether 12-12, combi 5 aptamer, combi 4 and combi 5 modified aptamers bound with three or five gemcitabines are stable in the human serum, serum stability was analyzed. In detail, 10 μL of […] was added to 100% human serum, followed by incubation at 37° C. for 0 hr, 1 hr, 3 hr, 6 hr, 12 hr, and 24 hr. After incubation, 5 μL of […] was added, and distilled water was added to a volume of 250 μL. 250 μL of phenol:chloroform:isoamyl alcohol (25:24:1) was added in the equal volume, followed by stirring. Each sample was centrifuged at 16000×g for 10 min. The supernatant was transferred to a new tube, and completely dried. The resultant was diluted with 5× sample buffer and distilled water, and boiled at 95° C. for 5 min, and cooled. The sample was separated by urea PAGE (Polyacrylamide gel Electrophoresis) at 220 V for 25 min, and then stained with SYBR gold and examined using a Gel Doc™ EZ system.

[5] = system: Huh 7 cells; test: Cell binding analysis of Cy5-labeled aptamers (FACS); format: cell-based; conditions: 25 nM aptamer, 12-10 and truncated aptamers, FIG. 6
Description: The 12-10 aptamer and 5 aptamer libraries prepared by truncating the 12-10 aptamer at various lengths [12-10 (40-mer), 12-12 (35-mer), 12-11 (29-mer), 12-13 (24-mer), 12-14 (23-mer), 12-15 (18-mer)] were subjected to cell binding analysis. Each aptamer sequence was labeled with Cy5 at the 5′ end thereof according to the method of Example 1-1. Huh 7 cells (ATCC, Rockville, MD, USA) were seeded at a density of 2×10^6/mL in a 100 mm^2 culture plate, and cultured using a DMEM medium (Gibco, Grand Island, NY, USA) containing 10% FBS (Gibco, Grand Island, NY, USA) and 1% antibiotics (penicillin/streptomycin) under conditions of 5% CO2 and 37° C. 5 μM of the aptamer stock was mixed with 5×SB18 buffer to prepare the aptamer at a concentration of 4 μM, and heated at 95° C. for 5 min, and then cooled at room temperature for 15 min or more. 4 μM of the aptamer was diluted with KRPH buffer (20 mM HEPES, 5 mM KH2PO4, 1 mM MgSO4, 1 mM CaCl2, 136 mM NaCl, 4.7 mM KCl, pH 7.4) at a concentration of 25 nM. The culture medium was removed from the cultured cells, and 4 mL of phosphate-buffered saline (PBS) was added thereto, followed by washing, and then 4 mL of PBS was removed. 4 mL of cold PBS or warm PBS was added, and cells were scraped using a scraper, and collected in tubes, followed by pipetting. The cells were divided and added to fluorescence-activated cell sorting (FAC) tubes according to the number of samples, followed by centrifugation at 4° C. and 2000 rpm for 4 min. After removing the supernatant, each 500 μL of 25 nM aptamer and control (31-08 (40-mer) aptamer) were added to […] of KRPH buffer, followed by pipetting. The tube was covered with foil to block the light, followed by incubation at 4° C. for 30 min. After incubation, centrifugation was performed at 4° C. and 2000 rpm for 4 min, and the supernatant was removed. 2 mL of cold 1×PBS was added, washed, centrifuged at 4° C. and 2000 rpm for 4 min, and the supernatant was removed. This process was repeated three times. […] Cy5 was measured at […]. […]

[6] = system: Hep3B; test: Cellular internalization of chemically optimized aptamers (FIG. 17A); format: cell-based; conditions: combi 1 to combi 5, FIG. 17A
[7] = system: hepatoma specific cells expressing high levels of GPC3 (HepG2, Hep3B); test: Cellular internalization of combi 6 to combi 10 (FIG. 17B); format: cell-based

12-12 G(3) (DNA GNGAANGCGNNGAANNANGNSSSNNCAGNCANCAC; three gemcitabines, BzdU and 3' inverted dT, positions not given here)
cellular internalization over time ([1]; 1 hr, 2 hr, and 4 hr after the start of internalization, FIG. 11): most excellent cellular internalization | cellular internalization ([1]; vs 12-12 and scrambled 12-12, FIG. 10): most excellent cellular internalization | HepG2-killing effects ([2]; 10 nM to 1 μM, vs 12-12 or 30 nM to 3 μM gemcitabine, FIG. 12): excellent HepG2-killing effects | HepG2-killing effects ([2]; 31.75 nM to 2 μM, vs same concentrations of 12-12 or gemcitabine, FIG. 13): excellent HepG2-killing effects | cell-killing effects on A431 ([3]; 10 nM to 1 μM, FIG. 12): no cell-killing effects | cell-killing effects on A431 ([3]; 31.75 nM to 2 μM, FIG. 13): no cell-killing effects

12-12: SEQ ID NO: 6, 35-mer truncated from 2428-12-10, idT at 3′ end (GNGAANGCGNNGAANNANGNCCCNNCAGNCANCAC; modified base n undefined, 3' idT per name, further chemistry not given here)
half-life in the human serum [4]: 6 h | cellular internalization ([1]; 25 nM, truncated aptamers, FIG. 7): most excellent cellular internalization | cell binding ability [5]: most excellent cell binding ability

Combi 4: SEQ ID NO: 13, chemically optimized 12-12 aptamer (G_{Me}nG_{Me}A_{F}A_{F}nGCGnnG_{F}A_{F}A_{F}nnA_{F}nGYC_{F}C_{F}C_{F}nnCAG_{Me}nCAnCAMC_{F}; 2'-F and 2'-OMe units, modified bases n, Y, M undefined, 3' idT, as printed in the source, key not given here)
Hep3B cellular internalization [6]: excellent cellular internalization

Combi 8: SEQ ID NO: 17, chemically optimized 12-12 aptamer (G_{Me}nG_{Me}A_{F}A_{F}nGCGnnG_{F}A_{F}A_{Me}nnA_{Me}nWnC_{F}C_{F}C_{F}nnCAG_{Me}nCAnC_{F}A_{Me}C_{F}; 2'-F and 2'-OMe units, modified bases n, W undefined, 3' idT, as printed in the source, key not given here)
cellular internalization [7]: highest cellular internalization

Combi 9: SEQ ID NO: 18, chemically optimized 12-12 aptamer (G_{Me}nG_{Me}A_{F}A_{F}nGCGnnG,A_{F}AnnAnGnC_{F}C_{F}C_{F}nnCAG_{Me}nCAnCrAyCr; 2'-F and 2'-OMe units, modified base n undefined, 3' idT, as printed in the source, key not given here)
cellular internalization [7]: highest cellular internalization
